The test system of experiment [1] is immortalized megakaryocyte line (SeV2-MKCL). Kind of experiment: Platelet production: static culturing of immortalized megakaryocyte line. The experiment is classed as cell-based. Particulars: compound final concentration 0.1 μM, static culturing 6 to 7 days, control (DMSO) set to 1; platelets = CD41, CD42b and CD42a-positive cells. The essentials:
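SeV2-MKCL cells, washed free of doxycycline to stop forced expression, seeded at 1×10^5 cells/mL in IMDM-based medium with compound (final 0.1 μM) or DMSO, static culture 6–7 days, 37° C., 5% CO2. CD41/CD42a/CD42b-positive platelets counted by bead-corrected flow cytometry; platelets per megakaryocyte expressed as fold over DMSO control.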

For experiment [2], the target named is T1, aryl hydrocarbon receptor (AhR) (Homo sapiens, UniProt P35869).
T1 construct: DRE-Luc HepG2 cells subcultured in a 225 cm^2 flask; endogenous in cells; host or cells: HepG2 (ATCC), stably transfected with the reporter hCYP1A1/pGL4.27 (DRE-Luc HepG2)
T1 sequence (P35869 11-848): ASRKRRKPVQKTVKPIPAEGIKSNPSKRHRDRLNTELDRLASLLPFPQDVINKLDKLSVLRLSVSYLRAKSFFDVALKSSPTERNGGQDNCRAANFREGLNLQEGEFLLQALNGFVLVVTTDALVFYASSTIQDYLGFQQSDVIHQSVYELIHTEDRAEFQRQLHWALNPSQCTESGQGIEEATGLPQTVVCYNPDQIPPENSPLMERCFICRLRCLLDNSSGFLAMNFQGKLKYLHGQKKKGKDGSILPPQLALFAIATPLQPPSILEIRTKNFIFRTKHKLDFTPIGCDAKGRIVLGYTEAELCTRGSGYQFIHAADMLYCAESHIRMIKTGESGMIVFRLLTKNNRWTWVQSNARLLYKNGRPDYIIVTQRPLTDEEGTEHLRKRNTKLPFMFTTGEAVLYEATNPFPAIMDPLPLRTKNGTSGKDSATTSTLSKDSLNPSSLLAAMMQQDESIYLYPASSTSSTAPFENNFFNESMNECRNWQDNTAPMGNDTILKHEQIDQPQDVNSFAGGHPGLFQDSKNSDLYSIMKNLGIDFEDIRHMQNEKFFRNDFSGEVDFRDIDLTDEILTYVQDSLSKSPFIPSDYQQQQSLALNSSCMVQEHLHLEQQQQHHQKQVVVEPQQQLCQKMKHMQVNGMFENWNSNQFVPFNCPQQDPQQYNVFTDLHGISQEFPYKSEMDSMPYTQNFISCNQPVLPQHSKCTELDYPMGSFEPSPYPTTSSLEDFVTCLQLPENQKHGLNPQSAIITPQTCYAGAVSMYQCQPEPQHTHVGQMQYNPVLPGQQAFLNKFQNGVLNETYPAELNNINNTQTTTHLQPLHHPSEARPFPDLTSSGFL
The experiment is described as follows: AhR reporter gene assay (aryl hydrocarbon receptor antagonist activity, DRE-Luc HepG2 cells, TCDD-stimulated luciferase). It counts as cell-based. Put shortly:
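HepG2 cells stably carrying a human CYP1A1 promoter/DRE-driven luciferase reporter were pretreated with compound for 24 h at 37°C. TCDD (5×10^−10 M in the added solution) was then added for a further 24 h. Firefly luciferase luminescence was read as the measure of antagonism.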
Background: A reporter such as luciferase makes a cellular process visible.

Here are results for 29 compounds from patent US11932657B2, “Heterocyclic compound” (priority 2018, dated 2024).

One may read the IC50 as the concentration that gives 50% inhibition. A low value points to higher potency.

With `CC1(C)COc2nc3c(NCCc4ccc(O)c(-c5ccccc5F)c4)nc(-c4cncc(F)c4)nc3n21` [Example 2, 2-(2-fluorophenyl)-4-[2-[[2-(5-fluoropyridin-3-yl)-8,8-dimethyl-7H-purino[8,9-b][1,3]oxazol-4-yl]amino]ethyl]phenol], the “Static (vs veh): fold increase of platelet production efficiency (PLT/MK)” value (from here on “Static (vs veh): fold increase”) in experiment [1] was 5.6. This compound also displayed an IC50 in experiment [2] of 9.5 nM.

With `CC1(C)COc2nc3c(NCCc4c[nH]c5ccccc45)nc(-c4cncc(C(F)F)c4)nc3n21` [Example 101], in experiment [1], the “Static (vs veh): fold increase” value came to 3.8. Also, in experiment [2], the IC50 is 29 nM.

Consider `Cc1cncc(-c2nc(NCCc3c[nH]c4ccccc34)c3nc4n(c3n2)C(C)(C)CS4)c1` [Example 96], for which the “Static (vs veh): fold increase” value in experiment [1] came out at 2.7. In experiment [2], this compound yielded an IC50 of 39 nM.

For the compound `CCc1cccc(-c2cc(CCNc3nc(-c4cncc(F)c4)nc4c3nc3n4C(C)(C)CO3)ccc2O)c1` [Example 15], the “Static (vs veh): fold increase” value in experiment [1] was found to be 11. The compound further yielded an IC50 in experiment [2] of 5.5 nM.

For `CC1(C)COc2nc3c(NCCc4ccc(O)c(-c5cccc(C#N)c5)c4)nc(-c4cncc(C(F)F)c4)nc3n21` [Example 62, 3-[5-[2-[[2-[5-(difluoromethyl)pyridin-3-yl]-8,8-dimethyl-7H-purino[8,9-b][1,3]oxazol-4-yl]amino]ethyl]-2-hydroxyphenyl]benzonitrile], in experiment [1], the “Static (vs veh): fold increase” value amounted to 5.1. In experiment [2], this compound yielded an IC50 of 1.9 nM.

Regarding `CC1(C)CSc2nc3c(NCCc4ccc(O)c(-c5ccccc5)c4)nc(-c4cncc(C#N)c4)nc3n21` [Example 48], the “Static (vs veh): fold increase” value in experiment [1] is on record as 3.5. Moreover, in experiment [2], the IC50 turned out to be 0.42 nM.

As for `C[C@H]1CSc2nc3c(NCCc4ccc(O)c(-c5ccccc5F)c4)nc(-c4cncc(F)c4)nc3n21` [Example 30], in experiment [1], the “Static (vs veh): fold increase” value was determined as 6.7. Further, the IC50 in experiment [2] came out at 0.78 nM.

On to `C[C@@H]1CSc2nc3c(NCCc4ccc(O)c(-c5cccc(C#N)c5)c4)nc(-c4cncc(C#N)c4)nc3n21` [Example 61], for which the “Static (vs veh): fold increase” value in experiment [1] stood at 3.9. Inhibition in experiment [2] was half-maximal at 0.71 nM (IC50).

Take `CC1(C)COc2nc3c(NCCc4ccc(O)c(-c5cc(F)cc(C#N)c5)c4)nc(-c4cncc(F)c4)nc3n21` [Example 56]: the “Static (vs veh): fold increase” value in experiment [1] is reported as 6.5. For the same compound, the IC50 in experiment [2] was found to be 13 nM.

`CC1(C)CSc2nc3c(NCCc4ccc(O)c(-c5ccccc5F)c4)nc(-c4cncc(C#N)c4)nc3n21` [Example 38]: the “Static (vs veh): fold increase” value in experiment [1] is given as 4.9. In experiment [2], this compound displayed an IC50 of 0.49 nM.

Take `Cc1cncc(-c2cc(CCNc3nc(-c4cncc(F)c4)nc4c3nc3n4C(C)(C)CS3)ccc2O)c1` [Example 73]: the “Static (vs veh): fold increase” value in experiment [1] is given as 7.9. The compound further had a 50% inhibitory concentration (IC50) in experiment [2] of 7.3 nM.

For `Cc1cncc(-c2nc(NCCc3ccc(O)c(-c4ccc(F)cc4)c3)c3nc4n(c3n2)C(C)(C)CO4)c1` [Example 25], in experiment [1], the “Static (vs veh): fold increase” value worked out at 5.7. Besides, half-maximal inhibition in experiment [2] (IC50) required 4.4 nM.

Regarding `CC1(C)COc2nc3c(NCCc4ccc(O)c(-c5cccc(F)c5F)c4)nc(-c4cncc(F)c4)nc3n21` [Example 11], the “Static (vs veh): fold increase” value in experiment [1] came to 8.5. For the same compound, half-maximal inhibition in experiment [2] (IC50) required 6.4 nM.

Consider `Cc1cncc(-c2nc(NCCc3ccc(O)c(-c4ccccc4F)c3)c3nc4n(c3n2)C(C)(C)CS4)c1` [Example 26], for which the “Static (vs veh): fold increase” value in experiment [1] worked out at 5.0. Besides, in experiment [2], the IC50 stood at 1 nM.

In the case of `CC1(C)COc2nc3c(NCCc4c[nH]c5ccccc45)nc(-c4cc(F)ccc4F)nc3n21` [Example 87], in experiment [1], the “Static (vs veh): fold increase” value was 3.9. The compound also displayed an IC50 in experiment [2] of 38 nM.

Regarding `CC1(C)CSc2nc3c(NCCc4ccc(O)c(-c5cccc(C#N)c5)c4)nc(-c4cncc(F)c4)nc3n21` [Example 57], the “Static (vs veh): fold increase” value in experiment [1] was 4.9. In experiment [2], the IC50 was determined as 0.39 nM.

For `C[C@@H]1CSc2nc3c(NCCc4ccc(O)c(-c5ccccc5)c4)nc(-c4cncc(C#N)c4)nc3n21` [Example 50], the “Static (vs veh): fold increase” value in experiment [1] is 6.6. Moreover, in experiment [2], half-maximal inhibition (IC50) required 0.7 nM.

For `C[C@@H]1CSc2nc3c(NCCc4ccc(O)c(-c5ccccc5F)c4)nc(-c4cncc(F)c4)nc3n21` [Example 28], in experiment [1], the “Static (vs veh): fold increase” value was 9.7. Further, the half-maximal inhibitory concentration (IC50) in experiment [2] was determined as 0.4 nM.

In the case of `CC1(C)COc2nc3c(NCCc4ccc(O)c(-c5cccc(C#N)c5F)c4)nc(-c4cncc(C#N)c4)nc3n21` [Example 67], the “Static (vs veh): fold increase” value in experiment [1] was 2.9. The same compound returned an IC50 in experiment [2] of 2.4 nM.

As for `CC1(C)COc2nc3c(NCCc4ccc(O)c(-c5cccnc5)c4)nc(-c4cncc(F)c4)nc3n21` [Example 32, 4-[2-[[2-(5-fluoropyridin-3-yl)-8,8-dimethyl-7H-purino[8,9-b][1,3]oxazol-4-yl]amino]ethyl]-2-pyridin-3-ylphenol], in experiment [1], the “Static (vs veh): fold increase” value was 6.8. The IC50 in experiment [2] is 29 nM.

`CC1(C)COc2nc3c(NCCc4ccc(O)c(-c5ccccc5Cl)c4)nc(-c4cncc(F)c4)nc3n21` [Example 5]: the “Static (vs veh): fold increase” value in experiment [1] was determined as 5.1. In experiment [2], the IC50 worked out at 36 nM.

`CC1(C)COc2nc3c(NCCc4ccc(O)c(-c5cncc(F)c5)c4)nc(-c4cncc(F)c4)nc3n21` [Example 43, 2-(5-fluoropyridin-3-yl)-4-[2-[[2-(5-fluoropyridin-3-yl)-8,8-dimethyl-7H-purino[8,9-b][1,3]oxazol-4-yl]amino]ethyl]phenol]: the “Static (vs veh): fold increase” value in experiment [1] is on record as 7.1. The compound also registered an IC50 in experiment [2] of 26 nM.

As for `Fc1cncc(-c2nc(NCCc3c[nH]c4ccccc34)c3nc4n(c3n2)CCCS4)c1` [Example 109], in experiment [1], the “Static (vs veh): fold increase” value is 7.8. Besides, the IC50 in experiment [2] is 11 nM.

With `CC1(C)CSc2nc3c(NCCc4ccc(O)c(-c5ccccc5F)c4)nc(-c4cncc(F)c4)nc3n21` [Example 8], the “Static (vs veh): fold increase” value in experiment [1] is on record as 5.1. This compound also gave an IC50 in experiment [2] of 0.11 nM.

For `CC1(C)COc2nc3c(NCCc4c[nH]c5ccccc45)nc(-c4cccc(F)c4F)nc3n21` [Example 86], the “Static (vs veh): fold increase” value in experiment [1] was 4.4. The compound further displayed an IC50 in experiment [2] of 21 nM.

Take `CC1(C)CSc2nc3c(NCCc4ccc(O)c(-c5ccccc5F)c4)nc(-c4ccc5nccn5c4)nc3n21` [Example 52]: in experiment [1], the “Static (vs veh): fold increase” value turned out to be 5.3. The compound further gave an IC50 in experiment [2] of 1.8 nM.

Regarding `CC1(C)COc2nc3c(NCCc4ccc(O)c(-c5csc6ccccc56)c4)nc(-c4cncc(F)c4)nc3n21` [Example 35], in experiment [1], the “Static (vs veh): fold increase” value is given as 6.0. The same compound displayed an IC50 in experiment [2] of 12 nM.

`CC1(C)COc2nc3c(NCCc4ccc(O)c(-c5cccc(C#N)c5F)c4)nc(-c4cncc(F)c4)nc3n21` [Example 55]: the “Static (vs veh): fold increase” value in experiment [1] was determined as 6.8. Further, the IC50 in experiment [2] was 1.2 nM.

Regarding `CC1(C)CSc2nc3c(NCCc4ccc(O)c(-c5cccc(F)c5)c4)nc(-c4cncc(F)c4)nc3n21` [Example 9], the “Static (vs veh): fold increase” value in experiment [1] is given as 4.9. This compound had an IC50 in experiment [2] of 0.32 nM.
